Laboratory results: patent US10231954B2, “Neurodegenerative therapies” (LYTIX BIOPHARMA AS, priority 2014, dated 2019)

Tests used:
Format in all cases: biochemical
JNK2 = JNK2 (Homo sapiens, UniProt P45984); assay: Kinase profiling JNK2; settings: for residual kinase activity, JNK2: 100 micromolar inhibitor concentration, 100 is no change
Description: (§1) Any value less that 25 is considered to be highly significant inhibition.

MKK1 = MKK1 (Homo sapiens, UniProt Q02750); assay: Kinase profiling MKK1; settings: for residual kinase activity, MKK1: 100 micromolar inhibitor concentration, 100 is no change
Chain of MKK1 (Q02750 whole entry, species assumed): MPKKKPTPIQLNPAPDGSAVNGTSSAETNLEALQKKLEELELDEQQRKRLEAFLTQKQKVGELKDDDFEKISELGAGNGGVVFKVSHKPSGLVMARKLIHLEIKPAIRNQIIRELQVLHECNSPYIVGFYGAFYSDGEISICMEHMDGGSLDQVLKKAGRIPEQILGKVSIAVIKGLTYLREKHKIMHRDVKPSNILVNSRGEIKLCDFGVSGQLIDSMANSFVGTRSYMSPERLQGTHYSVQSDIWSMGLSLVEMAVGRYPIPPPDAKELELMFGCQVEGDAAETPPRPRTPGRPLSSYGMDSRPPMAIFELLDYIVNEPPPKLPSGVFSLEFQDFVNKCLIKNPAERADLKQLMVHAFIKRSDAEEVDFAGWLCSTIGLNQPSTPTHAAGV
Description: as §1

RSK2 = RSK2 (Homo sapiens, UniProt P51812); assay: Kinase profiling RSK2; settings: for residual kinase activity, RSK2: 100 micromolar inhibitor concentration, 100 is no change
Chain of RSK2 (P51812 whole entry, species assumed): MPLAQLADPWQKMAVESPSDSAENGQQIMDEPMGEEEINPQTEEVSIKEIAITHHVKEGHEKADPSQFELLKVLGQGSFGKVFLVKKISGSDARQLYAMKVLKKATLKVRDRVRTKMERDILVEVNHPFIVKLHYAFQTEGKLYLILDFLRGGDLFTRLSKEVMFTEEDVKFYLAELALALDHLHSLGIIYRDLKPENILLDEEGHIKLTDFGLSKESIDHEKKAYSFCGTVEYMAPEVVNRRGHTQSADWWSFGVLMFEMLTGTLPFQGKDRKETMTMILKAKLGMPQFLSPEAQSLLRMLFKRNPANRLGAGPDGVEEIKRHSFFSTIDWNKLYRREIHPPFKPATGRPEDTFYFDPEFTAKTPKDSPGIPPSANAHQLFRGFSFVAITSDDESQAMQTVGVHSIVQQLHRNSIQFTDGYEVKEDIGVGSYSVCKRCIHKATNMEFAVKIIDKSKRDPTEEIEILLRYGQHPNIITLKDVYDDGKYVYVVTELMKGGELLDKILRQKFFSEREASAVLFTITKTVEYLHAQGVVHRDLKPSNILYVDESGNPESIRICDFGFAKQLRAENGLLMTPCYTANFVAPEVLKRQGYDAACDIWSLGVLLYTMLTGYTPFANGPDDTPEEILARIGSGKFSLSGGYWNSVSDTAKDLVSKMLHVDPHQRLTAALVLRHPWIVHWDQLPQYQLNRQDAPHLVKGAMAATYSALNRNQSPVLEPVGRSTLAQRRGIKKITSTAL
Description: as §1

MKK6 = molecular target: T1, MKK6 (Homo sapiens, UniProt P52564); assay: Kinase profiling MKK6; settings: for residual kinase activity, MKK6: 100 micromolar inhibitor concentration, 100 is no change
T1 sequence (P52564 1-334): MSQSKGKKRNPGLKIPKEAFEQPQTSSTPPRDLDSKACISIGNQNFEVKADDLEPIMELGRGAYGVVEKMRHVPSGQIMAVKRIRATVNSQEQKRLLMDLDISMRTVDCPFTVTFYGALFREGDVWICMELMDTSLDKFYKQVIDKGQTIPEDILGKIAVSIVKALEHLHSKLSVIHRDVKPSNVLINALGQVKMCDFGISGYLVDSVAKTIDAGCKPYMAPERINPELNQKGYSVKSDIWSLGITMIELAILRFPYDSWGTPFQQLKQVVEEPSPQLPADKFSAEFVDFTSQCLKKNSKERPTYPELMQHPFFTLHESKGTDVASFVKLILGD
Description: as §1

Lck = Lck (Homo sapiens, UniProt P06239); assay: Kinase profiling Lck; settings: for residual kinase activity, Lck: 100 micromolar inhibitor concentration, 100 is no change
Description: as §1

NEK6 = NEK6 (Homo sapiens, UniProt Q9HC98); assay: Kinase profiling NEK6; settings: for residual kinase activity, NEK6: 100 micromolar inhibitor concentration, 100 is no change
Description: as §1

ERK2 = ERK2 (Homo sapiens, UniProt P28482); assay: Kinase profiling ERK2; settings: for residual kinase activity, ERK2: 100 micromolar inhibitor concentration, 100 is no change
Chain of ERK2 (P28482 whole entry, species assumed): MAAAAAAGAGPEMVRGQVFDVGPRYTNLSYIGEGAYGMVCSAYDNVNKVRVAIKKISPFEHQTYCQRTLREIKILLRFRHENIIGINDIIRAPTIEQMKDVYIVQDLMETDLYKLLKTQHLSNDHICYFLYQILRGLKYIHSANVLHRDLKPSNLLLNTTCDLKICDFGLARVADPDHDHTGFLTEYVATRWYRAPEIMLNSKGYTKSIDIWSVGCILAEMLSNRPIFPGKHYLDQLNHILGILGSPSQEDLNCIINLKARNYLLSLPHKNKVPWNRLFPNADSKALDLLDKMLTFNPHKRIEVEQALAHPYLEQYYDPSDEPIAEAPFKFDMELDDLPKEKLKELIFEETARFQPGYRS
Description: as §1

TTK = molecular target: T2, TTK (Homo sapiens, UniProt P33981); assay: Kinase profiling TTK; settings: for residual kinase activity, TTK: 100 micromolar inhibitor concentration, 100 is no change
T2 sequence (P33981 1-857): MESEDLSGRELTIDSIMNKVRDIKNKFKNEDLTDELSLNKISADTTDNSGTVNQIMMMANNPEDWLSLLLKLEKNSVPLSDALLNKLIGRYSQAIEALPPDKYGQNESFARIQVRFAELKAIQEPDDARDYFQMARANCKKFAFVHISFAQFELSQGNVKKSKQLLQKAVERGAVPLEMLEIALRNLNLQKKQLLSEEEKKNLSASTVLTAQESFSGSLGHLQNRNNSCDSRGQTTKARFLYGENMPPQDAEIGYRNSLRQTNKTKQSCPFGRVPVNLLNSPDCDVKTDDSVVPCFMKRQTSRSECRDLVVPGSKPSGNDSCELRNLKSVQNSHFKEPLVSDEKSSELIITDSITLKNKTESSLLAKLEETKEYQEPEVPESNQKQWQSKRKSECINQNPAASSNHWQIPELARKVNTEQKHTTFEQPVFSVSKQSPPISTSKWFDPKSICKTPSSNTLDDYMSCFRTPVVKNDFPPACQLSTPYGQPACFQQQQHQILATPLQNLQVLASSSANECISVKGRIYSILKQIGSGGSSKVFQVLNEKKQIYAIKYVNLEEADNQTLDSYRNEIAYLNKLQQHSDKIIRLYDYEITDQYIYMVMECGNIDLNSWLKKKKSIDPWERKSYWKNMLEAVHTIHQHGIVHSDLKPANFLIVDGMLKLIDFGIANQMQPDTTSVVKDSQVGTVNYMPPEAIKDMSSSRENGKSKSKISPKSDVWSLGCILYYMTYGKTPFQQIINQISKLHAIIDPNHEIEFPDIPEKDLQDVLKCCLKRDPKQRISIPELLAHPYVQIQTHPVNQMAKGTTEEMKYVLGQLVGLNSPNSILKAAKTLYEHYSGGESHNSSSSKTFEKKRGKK
Description: as §1

JAK2 = JAK2 (Homo sapiens, UniProt O60674); assay: Kinase profiling JAK2; settings: for residual kinase activity, JAK2: 100 micromolar inhibitor concentration, 100 is no change
Description: as §1

ROCK 2 = ROCK 2 (Homo sapiens, UniProt O75116); assay: Kinase profiling ROCK 2; settings: for residual kinase activity, ROCK 2: 100 micromolar inhibitor concentration, 100 is no change
Chain of ROCK 2 (O75116 whole entry, species assumed): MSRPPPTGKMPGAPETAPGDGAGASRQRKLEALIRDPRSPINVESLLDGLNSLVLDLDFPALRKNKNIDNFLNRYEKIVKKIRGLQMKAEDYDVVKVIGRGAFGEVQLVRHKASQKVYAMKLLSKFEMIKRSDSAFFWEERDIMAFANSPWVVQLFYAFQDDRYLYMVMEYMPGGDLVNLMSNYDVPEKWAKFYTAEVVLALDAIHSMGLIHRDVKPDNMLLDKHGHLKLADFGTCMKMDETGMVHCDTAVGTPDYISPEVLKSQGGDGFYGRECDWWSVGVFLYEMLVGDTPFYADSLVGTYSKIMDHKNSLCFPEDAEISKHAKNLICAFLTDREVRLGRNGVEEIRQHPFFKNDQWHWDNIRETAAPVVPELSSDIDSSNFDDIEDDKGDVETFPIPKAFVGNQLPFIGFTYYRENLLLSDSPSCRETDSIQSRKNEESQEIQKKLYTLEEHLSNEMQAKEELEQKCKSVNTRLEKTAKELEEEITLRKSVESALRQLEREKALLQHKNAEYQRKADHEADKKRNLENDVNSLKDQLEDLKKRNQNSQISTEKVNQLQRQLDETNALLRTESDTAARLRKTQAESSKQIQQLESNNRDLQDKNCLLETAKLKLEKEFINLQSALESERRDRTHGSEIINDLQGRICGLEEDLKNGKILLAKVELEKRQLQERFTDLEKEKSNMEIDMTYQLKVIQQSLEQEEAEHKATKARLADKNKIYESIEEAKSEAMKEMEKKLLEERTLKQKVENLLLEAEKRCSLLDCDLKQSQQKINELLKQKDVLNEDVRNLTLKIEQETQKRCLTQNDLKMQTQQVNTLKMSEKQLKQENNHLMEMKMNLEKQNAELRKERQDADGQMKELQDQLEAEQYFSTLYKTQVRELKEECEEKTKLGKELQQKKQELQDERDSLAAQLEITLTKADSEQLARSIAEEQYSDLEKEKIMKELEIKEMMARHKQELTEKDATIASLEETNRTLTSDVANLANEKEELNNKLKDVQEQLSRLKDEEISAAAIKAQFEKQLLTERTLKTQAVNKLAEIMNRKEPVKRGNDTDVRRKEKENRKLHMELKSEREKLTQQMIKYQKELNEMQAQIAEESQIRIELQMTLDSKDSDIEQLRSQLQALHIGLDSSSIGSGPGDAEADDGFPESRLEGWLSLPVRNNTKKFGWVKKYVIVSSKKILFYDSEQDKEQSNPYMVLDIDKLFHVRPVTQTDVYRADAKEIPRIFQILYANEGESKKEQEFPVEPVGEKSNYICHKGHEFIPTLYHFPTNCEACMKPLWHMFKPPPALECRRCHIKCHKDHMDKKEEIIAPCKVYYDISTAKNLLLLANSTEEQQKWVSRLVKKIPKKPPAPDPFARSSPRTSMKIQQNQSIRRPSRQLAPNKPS
Description: as §1

PKA = PKA (Homo sapiens, UniProt P17612); assay: Kinase profiling PKA; settings: for residual kinase activity, PKA: 100 micromolar inhibitor concentration, 100 is no change
Description: as §1

MKK2 = MKK2 (Homo sapiens, UniProt P36507); assay: Kinase profiling MKK2; settings: for residual kinase activity, MKK2: 100 micromolar inhibitor concentration, 100 is no change
Description: as §1

CAMK1 = CAMK1 (Homo sapiens, UniProt Q14012); assay: Kinase profiling CAMK1; settings: for residual kinase activity, CAMK1: 100 micromolar inhibitor concentration, 100 is no change
Chain of CAMK1 (Q14012 whole entry, species assumed): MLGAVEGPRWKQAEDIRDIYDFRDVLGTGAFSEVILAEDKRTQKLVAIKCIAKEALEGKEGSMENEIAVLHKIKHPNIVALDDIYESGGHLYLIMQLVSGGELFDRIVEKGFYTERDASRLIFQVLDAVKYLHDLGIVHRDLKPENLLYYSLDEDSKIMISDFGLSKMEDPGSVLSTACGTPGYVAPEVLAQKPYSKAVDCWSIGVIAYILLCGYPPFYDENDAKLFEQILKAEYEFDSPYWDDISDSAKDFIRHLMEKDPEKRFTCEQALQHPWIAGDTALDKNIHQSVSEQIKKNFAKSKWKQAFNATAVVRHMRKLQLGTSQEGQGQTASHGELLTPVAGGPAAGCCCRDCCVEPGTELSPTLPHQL
Description: as §1

EPH-A2 = EPH-A2 (Homo sapiens, UniProt P29317); assay: Kinase profiling EPH-A2; settings: for residual kinase activity, EPH-A2: 100 micromolar inhibitor concentration, 100 is no change
Description: as §1

SRPK1 = SRPK1 (Homo sapiens, UniProt Q96SB4); assay: Kinase profiling SRPK1; settings: for residual kinase activity, SRPK1: 100 micromolar inhibitor concentration, 100 is no change
Chain of SRPK1 (Q96SB4 whole entry, species assumed): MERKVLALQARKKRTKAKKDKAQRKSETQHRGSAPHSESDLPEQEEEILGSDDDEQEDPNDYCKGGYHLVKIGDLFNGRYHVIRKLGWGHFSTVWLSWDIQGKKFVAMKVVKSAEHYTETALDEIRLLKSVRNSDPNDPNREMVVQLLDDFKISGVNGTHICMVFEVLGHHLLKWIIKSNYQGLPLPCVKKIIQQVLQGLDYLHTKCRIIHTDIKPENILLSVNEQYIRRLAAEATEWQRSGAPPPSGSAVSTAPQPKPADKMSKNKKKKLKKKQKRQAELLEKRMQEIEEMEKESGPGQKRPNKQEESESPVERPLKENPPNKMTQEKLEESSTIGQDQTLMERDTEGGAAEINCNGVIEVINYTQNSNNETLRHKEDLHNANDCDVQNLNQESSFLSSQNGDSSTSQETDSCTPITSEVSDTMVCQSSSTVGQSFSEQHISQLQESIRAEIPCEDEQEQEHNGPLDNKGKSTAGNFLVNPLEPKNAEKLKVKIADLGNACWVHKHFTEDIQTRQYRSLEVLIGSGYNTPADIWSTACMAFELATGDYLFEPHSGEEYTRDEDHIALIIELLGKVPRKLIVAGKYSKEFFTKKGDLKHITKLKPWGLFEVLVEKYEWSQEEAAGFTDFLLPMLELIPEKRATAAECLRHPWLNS
Description: as §1

PKCz = molecular target: T3, PKCz (Homo sapiens, UniProt Q05513); assay: Kinase profiling PKCz; settings: for residual kinase activity, PKCz: 100 micromolar inhibitor concentration, 100 is no change
T3 sequence (Q05513 1-592): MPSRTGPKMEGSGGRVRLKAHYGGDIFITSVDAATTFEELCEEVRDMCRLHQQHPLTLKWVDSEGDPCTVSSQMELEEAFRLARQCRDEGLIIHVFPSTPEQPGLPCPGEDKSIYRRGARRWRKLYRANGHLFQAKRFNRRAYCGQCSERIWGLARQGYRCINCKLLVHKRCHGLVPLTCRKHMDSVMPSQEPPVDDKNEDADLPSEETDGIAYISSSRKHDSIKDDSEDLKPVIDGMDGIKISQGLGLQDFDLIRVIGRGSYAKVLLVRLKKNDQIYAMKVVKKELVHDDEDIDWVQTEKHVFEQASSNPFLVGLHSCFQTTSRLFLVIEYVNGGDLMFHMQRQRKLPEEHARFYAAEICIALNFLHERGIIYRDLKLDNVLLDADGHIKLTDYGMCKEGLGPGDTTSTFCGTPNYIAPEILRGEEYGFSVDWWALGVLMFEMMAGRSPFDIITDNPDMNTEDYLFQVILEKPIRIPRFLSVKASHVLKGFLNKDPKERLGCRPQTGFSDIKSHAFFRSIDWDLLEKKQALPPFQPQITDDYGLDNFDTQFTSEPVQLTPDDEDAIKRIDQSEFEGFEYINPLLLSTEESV
Description: as §1

HIPK2 = HIPK2 (Homo sapiens, UniProt Q9H2X6); assay: Kinase profiling HIPK2; settings: for residual kinase activity, HIPK2: 100 micromolar inhibitor concentration, 100 is no change
Description: as §1

Src = Src (Homo sapiens, UniProt P12931); assay: Kinase profiling Src; settings: for residual kinase activity, Src: 100 micromolar inhibitor concentration, 100 is no change
Description: as §1

PKBa = PKBa (Homo sapiens, UniProt P31749); assay: Kinase profiling PKBa; settings: for residual kinase activity, PKBa: 100 micromolar inhibitor concentration, 100 is no change
Chain of PKBa (P31749 whole entry): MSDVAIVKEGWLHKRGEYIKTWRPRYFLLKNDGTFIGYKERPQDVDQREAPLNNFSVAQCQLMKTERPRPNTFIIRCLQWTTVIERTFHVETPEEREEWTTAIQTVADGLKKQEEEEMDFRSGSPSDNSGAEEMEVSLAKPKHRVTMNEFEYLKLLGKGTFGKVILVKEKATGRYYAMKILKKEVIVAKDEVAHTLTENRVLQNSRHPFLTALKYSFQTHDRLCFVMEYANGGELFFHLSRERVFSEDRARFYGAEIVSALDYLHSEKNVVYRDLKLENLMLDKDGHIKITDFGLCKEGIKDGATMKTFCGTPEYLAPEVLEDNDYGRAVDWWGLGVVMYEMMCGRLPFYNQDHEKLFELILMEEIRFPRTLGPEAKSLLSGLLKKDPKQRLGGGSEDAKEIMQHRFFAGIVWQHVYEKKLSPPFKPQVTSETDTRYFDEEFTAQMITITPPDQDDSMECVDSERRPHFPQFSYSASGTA
Description: as §1

EF2K = EF2K (Homo sapiens, UniProt O00418); assay: Kinase profiling EF2K; settings: for residual kinase activity, EF2K: 100 micromolar inhibitor concentration, 100 is no change
Description: as §1

Chain of JNK2 (P45984 whole entry, species assumed): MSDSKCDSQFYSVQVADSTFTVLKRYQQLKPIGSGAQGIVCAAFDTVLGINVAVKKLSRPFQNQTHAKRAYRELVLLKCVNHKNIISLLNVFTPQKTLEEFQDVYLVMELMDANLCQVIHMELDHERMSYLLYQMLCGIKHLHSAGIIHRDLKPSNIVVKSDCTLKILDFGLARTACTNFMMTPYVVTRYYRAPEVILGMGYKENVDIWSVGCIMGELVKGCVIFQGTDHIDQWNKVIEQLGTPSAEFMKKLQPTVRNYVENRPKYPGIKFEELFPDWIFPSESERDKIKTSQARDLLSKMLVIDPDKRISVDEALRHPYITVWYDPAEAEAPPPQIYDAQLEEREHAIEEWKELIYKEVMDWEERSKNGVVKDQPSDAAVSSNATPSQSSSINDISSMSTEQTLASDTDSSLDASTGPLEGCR

| SMILES | residual kinase activity, JNK2 (JNK2) | residual kinase activity, MKK1 (MKK1) | residual kinase activity, RSK2 (RSK2) | residual kinase activity, MKK6 (MKK6) | residual kinase activity, Lck (Lck) | residual kinase activity, NEK6 (NEK6) | residual kinase activity, ERK2 (ERK2) | residual kinase activity, TTK (TTK) | residual kinase activity, JAK2 (JAK2) | residual kinase activity, ROCK 2 (ROCK 2) | residual kinase activity, PKA (PKA) | residual kinase activity, MKK2 (MKK2) | residual kinase activity, CAMK1 (CAMK1) | residual kinase activity, EPH-A2 (EPH-A2) | residual kinase activity, SRPK1 (SRPK1) | residual kinase activity, PKCz (PKCz) | residual kinase activity, HIPK2 (HIPK2) | residual kinase activity, Src (Src) | residual kinase activity, PKBa (PKBa) | residual kinase activity, EF2K (EF2K) | also measured |
| --- | --- | --- | --- | --- | --- | --- | --- | --- | --- | --- | --- | --- | --- | --- | --- | --- | --- | --- | --- | --- | --- |
| O=C(Nc1nc2ccc(O)cc2s1)c1ccncc1 [Compound 08-42] | 90 | 87 | 62 | 101 | 79 | 75 | 73 | 32 | 50 | 43 | 91 | 72 | 68 | 77 | 19 | 76 | 23 | 62 | 90 | 79 |  |
| O=C(Nc1nc2ccc(O)cc2s1)c1ccccn1 [Compound 03-12] | 101 | 80 | 53 | 99 | 82 | 98 | 88 | 36 | 71 | 68 | 97 | 82 | 47 | 85 | 63 | 88 | 18 | 105 | 74 | 69 |  |
| CC(=O)Nc1cccc(NC(=O)c2nc3ccc(O)cc3s2)c1 [Compound 03-07, N-(3-acetamidophenyl)-6-hydroxybenzo[d]thiazole-2-carboxamide] |  |  |  |  |  |  |  |  |  |  |  |  |  |  |  |  |  |  |  |  | remaining activity at 100 µM (JNK2; 100 micromolar inhibitor, 100 = no change, read-out: residual kinase activity, JNK2): 104%; remaining activity at 100 µM (MKK1; 100 micromolar inhibitor, 100 = no change, read-out: residual kinase activity, MKK1): 85%; remaining activity at 100 µM (RSK2; 100 micromolar inhibitor, 100 = no change, read-out: residual kinase activity, RSK2): 71%; remaining activity at 100 µM (MKK6; 100 micromolar inhibitor, 100 = no change, read-out: residual kinase activity, MKK6): 114%; remaining activity at 100 µM (Lck; 100 micromolar inhibitor, 100 = no change, read-out: residual kinase activity, Lck): 88%; remaining activity at 100 µM (NEK6; 100 micromolar inhibitor, 100 = no change, read-out: residual kinase activity, NEK6): 91%; remaining activity at 100 µM (ERK2; 100 micromolar inhibitor, 100 = no change, read-out: residual kinase activity, ERK2): 96%; remaining activity at 100 µM (TTK; 100 micromolar inhibitor, 100 = no change, read-out: residual kinase activity, TTK): 28%; remaining activity at 100 µM (JAK2; 100 micromolar inhibitor, 100 = no change, read-out: residual kinase activity, JAK2): 56%; remaining activity at 100 µM (ROCK 2; 100 micromolar inhibitor, 100 = no change, read-out: residual kinase activity, ROCK 2): 27%; remaining activity at 100 µM (PKA; 100 micromolar inhibitor, 100 = no change, read-out: residual kinase activity, PKA): 91%; remaining activity at 100 µM (MKK2; 100 micromolar inhibitor, 100 = no change, read-out: residual kinase activity, MKK2): 88%; remaining activity at 100 µM (CAMK1; 100 micromolar inhibitor, 100 = no change, read-out: residual kinase activity, CAMK1): 44%; remaining activity at 100 µM (EPH-A2; 100 micromolar inhibitor, 100 = no change, read-out: residual kinase activity, EPH-A2): 88%; remaining activity at 100 µM (SRPK1; 100 micromolar inhibitor, 100 = no change, read-out: residual kinase activity, SRPK1): 27%; remaining activity at 100 µM (PKCz; 100 micromolar inhibitor, 100 = no change, read-out: residual kinase activity, PKCz): 107%; remaining activity at 100 µM (HIPK2; 100 micromolar inhibitor, 100 = no change, read-out: residual kinase activity, HIPK2): 46%; remaining activity at 100 µM (Src; 100 micromolar inhibitor, 100 = no change, read-out: residual kinase activity, Src): 101%; remaining activity at 100 µM (PKBa; 100 micromolar inhibitor, 100 = no change, read-out: residual kinase activity, PKBa): 103%; remaining activity at 100 µM (EF2K; 100 micromolar inhibitor, 100 = no change, read-out: residual kinase activity, EF2K): 91% |
| O=C(Nc1nc2ccc(O)cc2s1)c1ccccc1 [Compound 03-60] | 107 | 49 | 34 | 109 | 92 | 97 | 82 | 19 | 36 | 11 | 97 | 90 | 22 | 77 | 3 | 80 | 8 | 33 | 79 | 107 |  |
| CC(=O)Nc1nc2ccccc2s1 [Compound 03-32] | 105 | 81 | 105 | 85 | 91 | 92 | 149 | 71 | 66 | 91 | 91 | 96 | 99 | 111 | 59 | 126 | 51 | 113 | 104 | 89 |  |
